Our source for the IC50 values is patent US11952364B2, “TRK inhibitors useful as anticancer drugs” (TYLIGAND BIOSCIENCE (SHANGHAI) LIMITED, priority 2018, dated 2024).

The subject of one assay is KM12 cells. As to the kind of experiment: Proliferation of KM12 cells (CellTiter-Glo). Format: cell-based, human. Particulars: read-out: KM-12, IC50. The source says: KM12 is a human colon cancer cell line in which NTRK1 is highly expressed, and gene fusion occurs with TPM3 to form TPM3-NTRK1. • [Test method]: Promega's CellTiter-Glo® Luminescent Cell Viability Assay kit was used to evaluate the inhibitory activity of the compounds on the proliferation of KM12 cells. • [Instrument]: Spectramax M3 multifunctional microplate reader from Molecular Devices. • [Test materials]: KM12 cell line (ATCC, item number CRL-12496), 96-well transparent flat-bottomed black-walled cell culture plate (Corning, item number #3603), RPMI-1640 media (GE, cat #SH30027.01), Fetal Bovine Serum FBS (Thermo Fisher, cat #10099-141), CellTiter-Glo® Luminescent Cell Viability Assay Kit (Promega, cat #G7572), PBS (Solarbio, cat #P1020), Trypsin (Thermo Fisher, cat #25200072), DMSO (Sigma, cat #D2650). • [Experimental procedure]: When resuscitating KM12 cells, the freezing tube was quickly shaken in a 37° C. water bath to melt within 1 minute. The thawed cell suspension was mixed uniformly with RPMI1640 medium containing 10% FBS, centrifuged at 1000 rpm for 5 minutes, and the supernatant discarded. 5 mL of complete medium (RPMI1640 medium with 10% FBS) was taken to resuspend the cell pellets, charged into a cell culture flask with a bottom area of 25 cm^2, and incubated in a cell incubator at 37° C., 95% humidity and 5% CO2. Cells were allowed to passage when the cell confluence rate reached about 80%. For cell passage, the old medium was discarded, and the cells were washed twice with PBS, and 0.5 mL trypsin was added to digest the cells. Upon dispersing into single cells and exfoliating from the bottom of the cell culture flask, 4.5 mL of new complete medium was added to terminate the digestion. After pipetting the cell suspension evenly, 1/5 of the cell suspension was kept and added with 4 mL of new complete medium, and after pipetting evenly, the cell flask was placed in the cell incubator for further culturing. Cell plating was performed when the cell confluence rate reached about 80% again. For cell plating, 1/5 of the cell suspension was kept for further culturing as in the cell passage method, and the remaining 4/5 of the cell suspension was placed in a 15 mL centrifuge tube, detected for cell viability by Trypan blue exclusion method to ensure that cell viability was above 90%. A cell suspension with a density of 3.33×10^4 viable cells/mL was prepared with complete medium, and 90 μL of such cell suspension was added to a 96-well cell culture plate to obtain a cell density of 3000 viable cells/mL in the cell culture plate. A control group containing no cells, no compound and only complete medium (i.e. culture medium control) and a control group containing no compound but containing cells (i.e. cell control) were set. The cell plate was placed in a cell incubator overnight.
The 10 mM compound stock solution in DMSO was first serially diluted with DMSO at a dilution factor of 3.16 times, to obtain 9 concentrations, and the 10th concentration was set as DMSO control without compound. Then, PBS was used to dilute the DMSO solutions of compounds of different concentrations, at a dilution factor of 100 times, so that the DMSO concentration in the compound solution of each concentration was 1%. Finally, 10 μL of each of the above solutions was added to the corresponding cell culture plate, so that the initial compound concentration was 10 μM, with the remaining concentrations being successively diluted at a dilution factor of 3.16 times, and the DMSO content in the cell culture plate was 0.1%.
The cell plate was placed in a cell incubator and cultured for 72 hours. For endpoint detection, the CellTiter-Glo reagent was melted, and the cell plate was moved to room temperature to equilibrate for 30 minutes, added with 100 μL of CellTiter-Glo for each well, and shaken on an orbital shaker for 5 minutes to fully lyse the cells. […]
A general note: In ATP-based viability assays light output follows the ATP content of the culture.

The subject of the next assay is MKN45 cells. The assay can be described thus: Proliferation of MKN45 cells. It counts as cell-based. The conditions noted are these: Homo sapiens, MKN-45; Table 8. The protocol:
MKN45 is a human poorly differentiated gastric cancer cell line with high MET expression. Cell proliferation experiments were performed according to literature methods (Zhang, D. et al. Bioorg. Med. Chem. 2013, 21, 6804; Riss, T. L.; Moravec, R. A.; Niles, A. L.; et al. Cell Viability Assays 2013 May 1 [Updated 2016 Jul. 1]. In: Sittampalam, G. S.; Grossman, A.; Brimacombe, K.; et al., editors. Assay Guidance Manual [Internet]. Bethesda (MD): Eli Lilly & Company and the National Center for Advancing Translational Sciences; 2004-. Available from: https://www.ncbi.nlm.nih.gov/books/NBK144065/).

The test system of assay [1] is Ba/F3 ETV6-NTRK3-G696C cells. The assay can be described thus: Proliferation of Ba/F3 ETV6-NTRK3-G696C cells (CellTiter-Glo). Particulars: Mus musculus, BaF3, Table 7-2; separate test; read-out: Ba/F3 ETV6-NTRK3-G696C, IC50. It counts as cell-based, mouse. An excerpt:
Ba/F3 ETV6-NTRK3-G696C is a stable transgenic cell line constructed by KYinno Biotechnology Co., Ltd. on mouse primary B cell Ba/F3 wherein NTRK3 is highly expressed with a mutation of G at position […] to C and fused with ETV6 to form ETV6-NTRK3. • [Test method]: Promega's CellTiter-Glo® Luminescent Cell Viability Assay kit was used to evaluate the inhibitory activity of the compounds on the proliferation of Ba/F3 ETV6-NTRK3-G696C cells. • [Instrument]: Spectramax M3 multifunctional microplate reader from Molecular Devices. • [Test materials]: Ba/F3 ETV6-NTRK3-G696C cell line (constructed by KYinno Biotechnology Co., Ltd. (Beijing)), 96-well transparent flat-bottomed black-walled cell culture plate (Corning, cat #3603), RPMI-1640 media (GE, product number #SH30027.01), fetal bovine serum FBS (Thermo Fisher, cat #10099-141), CellTiter-Glo® Luminescent Cell Viability Assay kit (Promega, cat #G7572), PBS (Solarbio, cat #P1020), DMSO (Sigma, cat #D2650). • [Experimental procedure]: When resuscitating Ba/F3 ETV6-NTRK3-G696C cells, • the freezing tube was quickly shaken in a 37° C. water bath to melt within 1 minute. The thawed cell suspension was mixed uniformly with RPMI1640 medium containing 10% FBS, centrifuged at 1000 rpm for 5 minutes, and the supernatant discarded. 5 mL of complete medium (RPMI1640 medium with 10% FBS) was taken to resuspend the cell pellets, charged into a cell culture flask with a bottom area of 25 cm^2, and incubated in a cell incubator at 37° C., 95% humidity and 5% CO2. Cells were allowed to passage when the number of cells reached about 10^6 cells/mL. For cell passage, the old cell suspension was directly pipetted evenly, 1/5 of the cell suspension was kept, 4 mL of new complete medium was added, after pipetting evenly, the cell flask was placed in the cell incubator for further culturing. Cell plating was performed when the number of cells reached about 10^6 cells/mL again. For cell plating, 1/5 of the cell suspension was kept for further culturing as in the cell passage method, and the remaining 4/5 of the cell suspension was placed in a 15 mL centrifuge tube, detected for cell viability by Trypan blue exclusion method to ensure that cell viability was above 90%. A cell suspension with a density of 5.56×10^4 viable cells/mL was prepared with complete medium, and 90 μL of such cell suspension was added to a 96-well cell culture plate to obtain the cell density of 5000 viable cells/mL in the cell culture plate. A control group containing no cells, no compound and only complete medium (i.e. culture medium control) and a control group containing no compound but containing cells (i.e. cell control) were set. The cell plate was placed in a cell incubator overnight. The 10 mM compound stock solution in DMSO was first serially diluted with DMSO at a dilution factor of 3.16 times, to obtain 9 concentrations, and the 10th concentration was set as DMSO control without compound. Then, PBS was used to dilute the DMSO solutions of compounds of different concentrations, at a dilution factor of 100 times, so that the DMSO concentration in the compound solution of each concentration was 1%. Finally, 10 μL of each of the above solutions was added to the corresponding cell culture plate, so that the initial compound concentration was 10 μM, with the remaining concentrations being successively diluted at a dilution factor of 3.16 times, and the DMSO content in the cell culture plate was 0.1%. The cell plate was placed in a cell incubator and cultured for 72 hours. For endpoint detection, the CellTiter-Glo reagent was melted, and the cell plate was moved to room temperature to equilibrate for 30 minutes, added with 100 μL of CellTiter-Glo for each well, and shaken on an orbital shaker for 5 minutes to fully lyse the cells. […]

Setting [2] is: Homo sapiens, KM12, Table 1-2, separate test.

Like-named read-outs stand apart in the source and are kept apart here.

Regarding `N.N.[Cl][Pt][Cl]` [Cisplatin, reference compound], in the assay on KM12 cells (Table 1, 72 hours), the IC50 was 27.3 µM.
Take `Cn1ncc2cc(Oc3ccc(NC(=O)c4ccc(OCC(F)(F)F)n(-c5ccc(F)cc5)c4=O)cc3F)c(-c3cn[nH]c3)cc21` [Example 17, N-(3-fluoro-4-(1-methyl-6-(1H-pyrazol-4-yl)-1H-indazol-5-yloxy)phenyl)-1-(4-fluorophenyl)-6-(2,2,2-trifluoroethoxy)-2-oxo-1,2-dihydropyidine-3-carboxamide]: the IC50 with KM12 cells (setting [2]) is 0.019 µM; with MKN45 cells, 0.015 µM; in assay [1], 0.0037 µM.
Take `CCn1ncc2cc(Oc3ccc(NC(=O)c4ccc(OC5CC5)n(-c5ccc(F)cc5)c4=O)cc3F)c(-c3cn[nH]c3)cc21` [Example 25, N-(3-fluoro-4-(1-ethyl-6-(1H-pyrazol-4-yl)-1H-indazol-5-yloxy)phenyl)-1-(4-fluorophenyl)-6-cyclopropoxy-2-oxo-1,2-dihydropyridine-3-carboxamide]: the IC50 with KM12 cells (setting [2]) worked out at 0.029 µM; in assay [1], 0.0063 µM.
`CCn1ncc2cc(Oc3ccc(NC(=O)c4ccc(OCC(F)(F)F)n(-c5ccc(F)cc5)c4=O)cc3F)c(-c3cn[nH]c3)cc21` [Example 27, N-(3-fluoro-4-(1-ethyl-6-(1H-pyrazol-4-yl)-1H-indazol-5-yloxy)phenyl)-1-(4-fluorophenyl)-6-(2,2,2-trifluoroethoxy)-2-oxo-1,2-dihydropyidine-3-carboxamide]: in assay [1], the IC50 came out at 0.003 µM.
As for `CN1CCN(c2ccc(C(=O)Nc3n[nH]c4ccc(Cc5cc(F)cc(F)c5)cc34)c(NC3CCOCC3)c2)CC1` [RXDX-101, reference compound], the IC50 in the assay on KM12 cells (Homo sapiens, KM12, 72 h, Table 1, 72 hours) came out at 0.0051 µM.
